Assay results published in ChEMBL document CHEMBL4602733 (J Med Chem, 2020).
One block for each compound: values may come before it.

Assays:
Histamine H3 receptor [1] = biological target: T1, Histamine H3 receptor (Homo sapiens, UniProt Q9Y5N1); parameters: species or system Sf9
Histamine H4 receptor [2] = biological target: T2, Histamine H4 receptor (Homo sapiens, UniProt Q9H3N8); parameters: species or system Sf9
Histamine H3 receptor [3] = biological target: T1, Histamine H3 receptor; parameters: species or system Sf9; remark: listed apart in the source
Homo sapiens = species: Homo sapiens; parameters: reference not given here
Histamine H1 receptor = Histamine H1 receptor (Homo sapiens, UniProt P35367); test: Displacement of [3H]pyrilamine from human recombinant H1R expressed in baculovirus infected Sf9 insect cell membranes co-expressing RGS4
Chain of Histamine H1 receptor (P35367 whole entry): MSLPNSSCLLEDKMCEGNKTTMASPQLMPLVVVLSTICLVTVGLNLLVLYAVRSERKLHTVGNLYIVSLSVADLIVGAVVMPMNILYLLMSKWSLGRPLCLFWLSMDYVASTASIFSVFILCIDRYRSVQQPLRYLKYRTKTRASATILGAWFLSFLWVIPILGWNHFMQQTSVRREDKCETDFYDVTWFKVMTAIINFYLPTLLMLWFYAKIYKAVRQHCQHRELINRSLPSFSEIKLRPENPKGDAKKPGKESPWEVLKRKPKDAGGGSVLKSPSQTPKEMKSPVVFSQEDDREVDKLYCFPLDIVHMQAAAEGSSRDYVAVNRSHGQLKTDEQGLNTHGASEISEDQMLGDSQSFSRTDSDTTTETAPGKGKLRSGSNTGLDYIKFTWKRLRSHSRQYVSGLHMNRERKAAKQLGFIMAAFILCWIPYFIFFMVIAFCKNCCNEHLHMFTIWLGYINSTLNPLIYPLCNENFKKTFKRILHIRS

Histamine H3 receptor [4] = biological target: T1, Histamine H3 receptor; test: Antagonist activity at human H3R expressed in HEK293T-SP-FLAG-hH3R-CRE-CBR cells assessed as reduction in histamine-induced inhibition of forskolin stimulated luciferase activity preincubated for 15 mins followed by forskolin and histamine addition by luciferase reporter gene assay; type: functional, cell-based
Histamine H3 receptor [5] = biological target: T1, Histamine H3 receptor; test: Binding affinity to human recombinant NLuc/GPCR-fused H3R expressed in HEK293T cells measured after 30 mins by furimazine substrate based BRET assay; type: cell-based, HEK-293T
Histamine H3 receptor [6] = biological target: T1, Histamine H3 receptor; test: Inhibition of UR-DEBa242 binding to human recombinant NLuc/GPCR-fused H3R expressed in HEK293T cells measured after 30 mins by furimazine substrate based BRET assay; type: cell-based, HEK-293T
Histamine H3 receptor [7] = biological target: T1, Histamine H3 receptor; parameters: species or system Sf9; remark: listed apart in the source
Histamine H4 receptor [8] = biological target: T2, Histamine H4 receptor; parameters: species or system Sf9; remark: listed apart in the source
Histamine H4 receptor [9] = biological target: T3, Histamine H4 receptor (Mus musculus, UniProt Q91ZY2); test: Antagonist activity at mouse H4R expressed in HEK293 cells co-expressing ELucC/ELucN-beta-arrestin2 assessed as inhibition of histamine-induced beta-arrestin recruitment preincubated for 15 mins followed by histamine addition by luciferase reporter gene assay; type: cell-based
T3 sequence (Q91ZY2 whole entry): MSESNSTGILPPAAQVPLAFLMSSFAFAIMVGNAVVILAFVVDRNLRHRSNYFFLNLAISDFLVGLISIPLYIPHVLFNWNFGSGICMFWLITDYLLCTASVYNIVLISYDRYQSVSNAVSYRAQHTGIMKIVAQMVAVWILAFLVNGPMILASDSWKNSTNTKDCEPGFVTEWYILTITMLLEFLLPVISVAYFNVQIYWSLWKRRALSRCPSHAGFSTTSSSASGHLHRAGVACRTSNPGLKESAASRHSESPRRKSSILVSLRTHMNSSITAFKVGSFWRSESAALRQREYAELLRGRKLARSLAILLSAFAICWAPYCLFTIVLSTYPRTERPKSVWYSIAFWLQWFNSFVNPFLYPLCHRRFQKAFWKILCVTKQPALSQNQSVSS

Histamine H4 receptor [10] = biological target: T3, Histamine H4 receptor; test: Inhibition of UR-DEBa242 binding to mouse recombinant NLuc/GPCR-fused H4R expressed in HEK293T cells measured after 30 mins by furimazine substrate based BRET assay; type: cell-based, HEK-293T
Histamine H4 receptor [11] = biological target: T3, Histamine H4 receptor; test: Displacement of UR-DEBa176 from mouse recombinant H4R expressed in HEK293T-SF-His6-CRE-Luc cells; type: cell-based
[12] = Chemical stability of the compound in pH 7.4 phosphate buffered saline at 200 uM incubated for 5 to 6 hrs in 96-well Primaria plates by RP-HPLC method; type: physicochemical; settings: buffer, pH 7.4, 200 µM
[13] = Chemical stability of the compound in pH 7.4 phosphate buffered saline at 200 uM incubated for 5 to 6 hrs in white 96-well cellGrade plates by RP-HPLC method; type: physicochemical; settings: buffer, pH 7.4, 200 µM
[14] = Chemical stability of the compound in pH 7.4 phosphate buffered saline at 200 uM incubated for >= 1 hr in 1.5 mL microtubes by RP-HPLC method; type: physicochemical; settings: buffer, pH 7.4, 1 h
[15] = Chemical stability of the compound in pH 7.4 phosphate buffered saline at 200 uM incubated for >= 1 hr in Sigmacote-treated 1.5 mL microtubes by RP-HPLC method; type: physicochemical; settings: buffer, pH 7.4, 1 h
Histamine H3 receptor [16] = biological target: T1, Histamine H3 receptor; test: Agonist activity at human H3R expressed in HEK293T-SP-FLAG-hH3R-CRE-CBR cells incubated for 5 hrs by luciferase reporter gene assay; type: functional, cell-based
[17] = Drug uptake in wild-type HEK293T cells at 200 nM measured after 20 mins by confocal microscopic analysis; type: ADME, cell-based; settings: human, hek-293t, 0.2 µM
Histamine H3 receptor [18] = biological target: T1, Histamine H3 receptor; test: Binding affinity to human recombinant NLuc/GPCR-fused H3R expressed in HEK293T cells assessed as dissociation constant measured after 30 mins in presence of thioperamide by furimazine substrate based BRET assay; type: cell-based, HEK-293T
Histamine H3 receptor [19] = biological target: T1, Histamine H3 receptor; test: Binding affinity to human recombinant NLuc/GPCR-fused H3R expressed in HEK293T cells assessed as association rate constant measured after 30 mins by furimazine substrate based BRET assay; type: cell-based; settings: HEK-293T
Histamine H3 receptor [20] = biological target: T1, Histamine H3 receptor; test: Binding affinity to human recombinant NLuc/GPCR-fused H3R expressed in HEK293T cells assessed as dissociation rate constant measured after 30 mins in presence of thioperamide by furimazine substrate based BRET assay; type: cell-based; settings: HEK-293T
Histamine H3 receptor [21] = biological target: T1, Histamine H3 receptor; test: Binding affinity to human recombinant NLuc/GPCR-fused H3R expressed in HEK293T cells assessed as dissociation half life measured after 30 mins in presence of thioperamide by furimazine substrate based BRET assay; type: cell-based; settings: HEK-293T
Histamine H4 receptor [22] = biological target: T2, Histamine H4 receptor; test: Inhibition of UR-DEBa242 binding to human recombinant NLuc/GPCR-fused H4R expressed in HEK293T cells measured after 30 mins by furimazine substrate based BRET assay; type: cell-based, HEK-293T
Histamine H4 receptor [23] = biological target: T2, Histamine H4 receptor

T1 sequence (Q9Y5N1 whole entry): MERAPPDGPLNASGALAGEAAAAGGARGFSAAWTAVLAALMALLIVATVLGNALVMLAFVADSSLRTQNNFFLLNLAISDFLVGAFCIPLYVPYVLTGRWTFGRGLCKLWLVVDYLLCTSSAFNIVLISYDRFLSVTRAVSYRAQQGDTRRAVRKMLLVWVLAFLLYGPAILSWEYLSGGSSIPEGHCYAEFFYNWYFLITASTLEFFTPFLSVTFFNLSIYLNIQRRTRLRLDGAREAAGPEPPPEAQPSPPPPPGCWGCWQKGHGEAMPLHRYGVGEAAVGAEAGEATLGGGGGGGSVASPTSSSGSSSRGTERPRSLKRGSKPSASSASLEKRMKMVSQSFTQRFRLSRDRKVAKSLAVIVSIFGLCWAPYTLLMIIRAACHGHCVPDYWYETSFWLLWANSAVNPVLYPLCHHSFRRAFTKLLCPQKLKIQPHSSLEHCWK

Ki (Histamine H3 receptor [1]): 11.7 nM
Structure (SMILES): Cc1cc(/C=C/C=C/c2ccc(N(C)C)cc2)cc(C)[n+]1CCCc1c[nH]cn1

Ki (Histamine H4 receptor [2]): 1950 nM | Ki (Histamine H3 receptor [1]): 851 nM | Ratio Ki (Homo sapiens): 2.29
Structure (SMILES): Cc1cc(/C=C/C=C/c2ccc(N(C)C)cc2)cc(C)[n+]1CCc1c[nH]cn1

Ki (Histamine H3 receptor [1]): 0.912 nM | Ki (Histamine H1 receptor): > 4790 nM | pK (Histamine H3 receptor [4]): 8.71 | Kd (Histamine H3 receptor [5]; read-out: Kd): 0.97 nM | Kd (Histamine H3 receptor [5]; read-out: pKd (converted)): 1.15 nM
Structure (SMILES): Cc1cc(/C=C/C=C/c2ccc(N(C)C)cc2)cc(C)[n+]1CCCCCc1c[nH]cn1

Ki (Histamine H3 receptor [1]): 2400 nM
Structure (SMILES): Cc1cc(OCCCNC(=O)CCCCCN2\C(=C/C=C/C=C/C3=[N+](CCCCS(=O)(=O)[O-])c4ccccc4C3(C)C)C(C)(C)c3ccccc32)ccc1-c1nc2c(C)c(F)ccc2[nH]1

Ki (Histamine H3 receptor [6]): 0.537 nM | Ki (Histamine H3 receptor [7]): 3.16 nM
Structure (SMILES): CC(C)(C)CNc1nccc(N2CCc3nc[nH]c3C2)n1

Stability [12]: Stable | Stability [13]: Stable | Stability [14]: Unstable | Stability [15]: Unstable | Ki (Histamine H3 receptor [1]): 2.51 nM | Ki (Histamine H1 receptor): > 4790 nM | EC50 (Histamine H3 receptor [16]): 1.7 nM | Kd (Histamine H3 receptor [5]; read-out: Kd): 1.35 to 1.94 nM | Kd (Histamine H3 receptor [5]; read-out: pKd (converted)): 1.66 nM | Drug uptake [17]: Active | Kd (Histamine H3 receptor [18]; read-out: Kd): 2.54 to 6.86 nM | Kd (Histamine H3 receptor [18]; read-out: pKd (converted)): 4.68 nM | K (Histamine H3 receptor [19]): 1.06e+07 M⁻¹ s⁻¹ | K (Histamine H3 receptor [20]): 2.79 min⁻¹ | T1/2 (Histamine H3 receptor [21]): 15 s
Structure (SMILES): Cc1cc(/C=C/C=C/c2ccc(N(C)C)cc2)cc(C)[n+]1CCCCc1c[nH]cn1.O=C(O)C(F)(F)F.O=C([O-])C(F)(F)F

Ki (Histamine H3 receptor [1]): 457 nM
Structure (SMILES): Cc1cc(/C=C/C=C/c2ccc(N(C)C)cc2)cc(C)[n+]1CCCN1CCc2nc[nH]c2C1

The remaining lines, values behind:

Structure (SMILES): Cc1cc(OCCC[n+]2c(C)cc(/C=C/C=C/c3ccc(N(C)C)cc3)cc2C)ccc1-c1nc2c(C)c(F)ccc2[nH]1
Ki (Histamine H3 receptor [1]): 1620 nM

Structure (SMILES): Cc1cc(OCCC[n+]2c(C)cc(/C=C/c3cc4c5c(c3)CCCN5CCC4)cc2C)ccc1-c1nc2c(C)c(F)ccc2[nH]1
Ki (Histamine H4 receptor [2]): 28200 nM | Ki (Histamine H3 receptor [1]): 20400 nM

Structure (SMILES): NCCCc1c[nH]cn1
Ki (Histamine H3 receptor [3]): 93.3 nM | Ratio Ki (Homo sapiens): 0.34

Structure (SMILES): Cc1cc(/C=C/C=C/c2ccc(N(C)C)cc2)cc(C)[n+]1CCCNCCc1c[nH]cn1
Ki (Histamine H4 receptor [2]): 933 nM | Ki (Histamine H3 receptor [1]): 13.5 nM | Ratio Ki (Homo sapiens): 69.2

Structure (SMILES): Cc1cc(OCCCNC(=O)CCCCCNC(=O)COc2ccc(/C=C/C3=[N+]4C(=Cc5ccc(-c6ccc[nH]6)n5[B-]4(F)F)C=C3)cc2)ccc1-c1nc2c(C)c(F)ccc2[nH]1
Ki (Histamine H4 receptor [2]): 1820 nM | Ki (Histamine H3 receptor [1]): 501 nM

Structure (SMILES): NCCCCCc1c[nH]cn1
Ki (Histamine H4 receptor [8]): 631 nM | Ki (Histamine H3 receptor [3]): 37.2 nM | Ratio Ki (Homo sapiens): 17

Structure (SMILES): S=C(NC1CCCCC1)N1CCC(c2cnc[nH]2)CC1 [THIOPERAMIDE]
EC50 (Histamine H4 receptor [9]): 28.2 nM | Ki (Histamine H4 receptor [10]): 66.1 nM | Ki (Histamine H4 receptor [11]): 79.4 nM

Structure (SMILES): NC(=NCc1ccc(Cl)cc1)SCCCc1cnc[nH]1 [CLOBENPROPIT]
Ki (Histamine H4 receptor [22]): 77.6 nM | Ki (Histamine H4 receptor [10]): 123 nM | Ki (Histamine H4 receptor [11]): 158 nM | Ki (Histamine H4 receptor [23]): 39.8 nM

Structure (SMILES): NCCCCc1c[nH]cn1
Ratio Ki (Homo sapiens): 2.95
